IC50 data for 49 compounds are collected here from patent US11529347B2, “SHP2 phosphatase inhibitors and methods of use thereof” (Relay Therapeutics, Inc., priority 2016, dated 2022).

The target in this test is SHP2 (Homo sapiens (Human), UniProt Q06124). Nature of the test: SHP2 Allosteric Inhibition Assay (DiFMUP prompt fluorescence). The format is biochemical. The note with it: 0.25 nM SHP2 activated with 0.5 μM peptide IRS1_pY1172(dPEG8)pY1222; substrate DiFMUP 100 μM. From the text: SHP2 is allosterically activated through binding of bis-tyrosyl-phosphorylated peptides to its Src Homology 2 (SH2) domains. The latter activation step leads to the release of the auto-inhibitory interface of SHP2, which in turn renders the SHP2 protein tyrosine phosphatase (PTP) active and available for substrate recognition and reaction catalysis. The catalytic activity of SHP2 was monitored using the surrogate substrate DiFMUP in a prompt fluorescence assay format.
Sequence of SHP2 (Q06124 whole entry): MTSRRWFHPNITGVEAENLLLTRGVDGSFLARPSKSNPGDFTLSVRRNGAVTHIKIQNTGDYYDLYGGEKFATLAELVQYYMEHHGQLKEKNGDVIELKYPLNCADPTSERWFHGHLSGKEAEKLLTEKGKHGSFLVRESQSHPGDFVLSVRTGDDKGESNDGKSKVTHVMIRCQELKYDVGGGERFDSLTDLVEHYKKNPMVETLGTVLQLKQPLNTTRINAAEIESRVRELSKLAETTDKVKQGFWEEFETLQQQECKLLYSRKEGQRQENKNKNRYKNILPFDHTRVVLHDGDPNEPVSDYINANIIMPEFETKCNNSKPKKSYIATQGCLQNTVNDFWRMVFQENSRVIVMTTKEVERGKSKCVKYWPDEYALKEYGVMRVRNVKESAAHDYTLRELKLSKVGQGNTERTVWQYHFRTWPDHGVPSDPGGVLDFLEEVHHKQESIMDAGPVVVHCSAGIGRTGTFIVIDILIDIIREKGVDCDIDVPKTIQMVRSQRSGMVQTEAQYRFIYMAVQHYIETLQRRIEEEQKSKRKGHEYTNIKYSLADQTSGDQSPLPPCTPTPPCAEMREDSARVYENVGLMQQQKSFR
The inhibitor dose response curves were analyzed using normalized IC50 regression curve fitting with control based normalization.
As usually defined, the IC50 is the concentration needed to halve the response being measured. A low value points to higher potency. Consider `CC1(CN)CCN(c2cnc3c(-c4ccccc4Cl)n[nH]c3n2)CC1` [Compound 43], for which the IC50 is below 10 µM.
Then `NCC1CCN(c2cnc3c(-c4cccc(Cl)c4)n[nH]c3n2)C1` (stereo not shown) [Compound 27], with below 10 µM; and `CC1(N)CCN(c2cnc3c(-c4ccccc4Cl)n[nH]c3n2)CC1` [Compound 6], with below 10 µM; and `NC1CCN(c2cnc3c(-c4ccccc4Cl)n[nH]c3n2)CC1` [Compound 38], with below 10 µM.
Under `O=C1NCC2(CCCN(c3cnc4c(-c5ccccc5Cl)n[nH]c4n3)CC2)O1` (stereo not shown) [Compound 53] stands 10 to 100 µM; under `CC1(CN)CCN(c2cnc3c(-c4ccncc4)n[nH]c3n2)CC1` [Compound 19], below 10 µM; under `Clc1ccccc1-c1n[nH]c2nc(N3CCC4(CCCN4)CC3)cnc12` [Compound 41], below 10 µM.
Then `CC1(CN)CCN(c2cnc3c(-c4cccc(Cl)c4F)n[nH]c3n2)CC1` [Compound 48], with below 10 µM; and `NCC1(O)CCN(c2cnc3c(-c4cccc(Cl)c4)n[nH]c3n2)CC1` [Compound 25], with below 10 µM.
As for `N[C@@H]1[C@H]2CN(c3cnc4c(-c5cccc(Cl)c5)n[nH]c4n3)C[C@@H]12` [Compound F21], the half-inhibitory concentration (IC50) was below 10 µM.
Then `NCC1(CO)CCN(c2cnc3c(-c4ccccc4Cl)n[nH]c3n2)CC1` [Compound 51], with below 10 µM.
Then `COC1(CN)CCN(c2cnc3c(-c4ccccc4Cl)n[nH]c3n2)CC1` [Compound 32], with below 10 µM; and `CC(N)C1CCN(c2cnc3c(-c4ccccc4Cl)n[nH]c3n2)CC1` (stereo not shown) [Compound 47], with below 10 µM.
Under `NCC1CCCN(c2cnc3c(-c4ccccc4Cl)n[nH]c3n2)CC1` (stereo not shown) [Compound 40] stands below 10 µM; under `CNCC1(C)CCN(c2cnc3c(-c4ccccc4Cl)n[nH]c3n2)CC1` [Compound 36], 10 to 100 µM.
As to `Clc1cccc(-c2n[nH]c3nc(N4CCCCC4)cnc23)c1Cl` [Compound 45], the IC50 is above 100 µM.
Then `N[C@@H]1CCCC12CCN(c1cnc3c(-c4ccccc4Cl)n[nH]c3n1)CC2` [Compound 16], with below 10 µM; and `CC1(CN)CCN(c2cnc3c(-c4cccc(Cl)c4Cl)n[nH]c3n2)CC1` [Compound 10], with below 10 µM.
Then `Clc1ccccc1-c1n[nH]c2nc(N3CCC4(CCNC4)C3)cnc12` (stereo not shown) [Compound 55], with 10 to 100 µM; and `CC1(CN)CCCN(c2cnc3c(-c4ccccc4Cl)n[nH]c3n2)CC1` (stereo not shown) [Compound 13], with below 10 µM; and `NCC1(O)CCN(c2cnc3c(-c4ccccc4Cl)n[nH]c3n2)CC1` [Compound 52], with below 10 µM.
As for `N[C@H]1CCN(c2cnc3c(-c4ccccc4Cl)n[nH]c3n2)C[C@@H]1O` [Compound 33], the IC50 was below 10 µM.
Under `Clc1ccccc1-c1n[nH]c2nc(N3CC4CNCC4C3)cnc12` (stereo not shown) [Compound 44] stands below 10 µM; under `CC1(CN)CCN(c2cnc3c(-c4ncccc4Cl)n[nH]c3n2)CC1` [Compound 22], 10 to 100 µM; under `CC1(N)CCN(c2cnc3c(-c4cccc(Cl)c4)n[nH]c3n2)CC1` [Compound 31], below 10 µM.
Then `N[C@@H]1CCC12CCN(c1cnc3c(-c4ccccc4Cl)n[nH]c3n1)CC2` [Compound 37], with 10 to 100 µM; and `N[C@@H]1CC12CCN(c1cnc3c(-c4ccccc4Cl)n[nH]c3n1)CC2` [Compound 49], with 10 to 100 µM; and `CC1(N)CCN(c2cnc3c(-c4ccc(Cl)cc4)n[nH]c3n2)CC1` [Compound 17], with below 10 µM.
Compound `NC1CCC12CCN(c1cnc3c(-c4ccccc4Cl)n[nH]c3n1)CC2` (stereo not shown) [Compound 28] registered an IC50 below 10 µM.
In the case of `N[C@H]1CCC12CCN(c1cnc3c(-c4ccccc4Cl)n[nH]c3n1)CC2` [Compound 26], the IC50 was below 10 µM.
On to `NC1(CO)CCN(c2cnc3c(-c4ccccc4Cl)n[nH]c3n2)CC1` [Compound 56], for which the IC50 was below 10 µM.
In the case of `N[C@H]1CC12CCN(c1cnc3c(-c4ccccc4Cl)n[nH]c3n1)CC2` [Compound 9], the IC50 is below 10 µM.
Then `NC(=O)C1(N)CCN(c2cnc3c(-c4cccc(Cl)c4)n[nH]c3n2)CC1` [Compound 12], with below 10 µM; and `CC1(CN)CCN(c2cnc3c(-c4cccc(Cl)c4)n[nH]c3n2)CC1` [Compound 50], with below 10 µM.
Turning to `Clc1ccccc1-c1n[nH]c2nc(N3C4CCCC3CC4)cnc12` [Compound 8], the half-inhibitory concentration (IC50) is 10 to 100 µM.
The compound `O=C1NCC2(CCN(c3cnc4c(-c5ccccc5Cl)n[nH]c4n3)CC2)N1` [Compound 11] came in with an IC50 of 10 to 100 µM.
Under `N[C@H]1CCCC12CCN(c1cnc3c(-c4ccccc4Cl)n[nH]c3n1)CC2` [Compound 35] stands below 10 µM.
Then `COc1cccc(-c2n[nH]c3nc(N4CCC(C)(CN)CC4)cnc23)c1Cl` [Compound 39], with below 10 µM.
Under `CC1(CN)CCN(c2cnc3c(-c4ccccc4)n[nH]c3n2)CC1` [Compound 15] stands below 10 µM; under `NC1CC12CCN(c1cnc3c(-c4ccccc4Cl)n[nH]c3n1)CC2` (stereo not shown) [Compound 18], below 10 µM; under `CC(C)(N)C1CCN(c2cnc3c(-c4ccccc4Cl)n[nH]c3n2)CC1` [Compound 14], 10 to 100 µM.
Take `CC1(CN)CCN(c2cnc3c(-c4cccc(Cl)c4Br)n[nH]c3n2)CC1` [Compound 34]: the 50% inhibitory concentration (IC50) was below 10 µM.
Under `CC1(CN)CCN(c2cnc3c(-c4ccc(Cl)cc4)n[nH]c3n2)CC1` [Compound 29] stands below 10 µM; under `COCC1(CN)CCN(c2cnc3c(-c4ccccc4Cl)n[nH]c3n2)CC1` [Compound 42], below 10 µM.
Under `NCC1(O)CCCN(c2cnc3c(-c4ccccc4Cl)n[nH]c3n2)CC1` (stereo not shown) [Compound 20] stands below 10 µM.
Turning to `NCC1(F)CCN(c2cnc3c(-c4ccccc4Cl)n[nH]c3n2)CC1` [Compound 24], the half-maximal inhibitory concentration (IC50) was below 10 µM.
Then `COc1ccccc1-c1n[nH]c2nc(N3CCC(C)(CN)CC3)cnc12` [Compound 54], with below 10 µM; and `NCC1(N)CCN(c2cnc3c(-c4ccccc4Cl)n[nH]c3n2)CC1` [Compound 46], with below 10 µM.
Under `NC(CO)C1CCN(c2cnc3c(-c4ccccc4Cl)n[nH]c3n2)CC1` (stereo not shown) [Compound 30] stands below 10 µM.
